# Measurements as given in paper PMC11677527, “Predicting Pharmacokinetics of Active Constituents in Spatholobi caulis by Using Physiologically Based Pharmacokinetic Models” (Pharmaceuticals, 2024).
# Where two headings read alike, the source gives them in different places.
# Assays:
# Caco-2 cell monolayer = tested on: Caco-2 cell monolayer; design: method as in PMID 36680806, PMID 26501241; details: Caco-2 cell monolayer model; cited from earlier work
# [1] = Verification pharmacokinetic experiment in rats, SPC 60 g crude drug/kg by gavage, UFLC-MS/MS, DAS 2.0; format: in vivo, rat
# Protocol: To validate the accuracy of PBPK models in predicting the pharmacokinetics of SPC constituents at different oral doses, the pharmacokinetic behavior of these four constituents from SPC in rats were analyzed by UFLC-MS/MS. The parameters were calculated using Drug and Statistics Software version 2.0, and then these validated values (Val.) were used to check the accuracy of the Calc. values and evaluated by FE.
# The pharmacokinetic fitting results of rats given 60 g crude drug/kg body weight of SPC by gavage were verified by experiments. The verification experiment was conducted according to our previous pharmacokinetic study. In brief, 1.5 mL suspension of SPC was given to rats by oral administration; 300 μL blood samples from orbital venous at 0.083, 0.25, 0.5, 0.75, 1.0, 1.5, 2, 3, 4, 6, 8, and 12 h were collected and pretreated with heparin sodium. After centrifugation, the plasma samples were obtained and further processed for subsequent detection by UFLC-MS/MS; the detailed analysis method is shown in Supplementary Data (Table S1 and Figure S1). The concentration-time curve of each compound was gained, and the pharmacokinetic parameters were calculated using DAS 2.0 software (DAS 2.0, Mathematical Pharmacology Professional Committee of China, Shanghai, China). The results of these four constituents were compared with the PBPK parameters predicted in rats at an oral dose of 60 g crude drug/kg body weight of SPC.
# 1. The instrument and analytical conditions of UFLC-MS/MS method
# 4 constituents (1. 3′-methoxydadizein; 2. 8-O-methylretusin; 3. Daidzin; and 4. […]
# The internal standard (IS) carbamazepine with a purity of more than 99 % was purchased from Beijing JK-chemical technology Co. Ltd., (Beijing China). Heparin sodium was gained from Tianjin biochemical pharmaceutical Co. Ltd, (Tianjin, China).
# Ammonium acetate of HPLC grade, methanol and acetonitrile of LC-MS grade were purchased from Sigma (LOT# BCBK6717V, sigma-aldrich, Co., MO, USA) and Fisher (Fisher Corp., Fair lawn, NJ, USA) respectively. The experimental ultrapure water was prepared by Millipore Milli-Q ultrapure water preparation apparatus (Millipore Sigma, […]
# The detailed information of Shimadzu UFLC-MS/MS 8050 liquid mass system equipped with Nexera X2UFLC liquid chromatography system and 8050 triple quadrupole mass spectrometers with an electrospray ionization source were listed in our previous study. The supporting LabSolution workstation was used for data […]
# The separation without superposition of analytes in plasma sample was achieved on a Kinetex® C18 chromatographic column (100mm×2.1mm i.d.; 2.6 μm, 100 Å; Phenomenex, Inc., Torrance, CA, USA) assembled with a Phenomenex p/n AJ0-9000 C18 protection column. The mobile phase was consisted of 0.5 mM ammonium acetate in water (A) and ACN (B). The gradient elution program was selected ultimately as […]
# 95 % B (18.7–22 min). Column and automatic sampler temperature were set as 30 °C and 4 °C respectively. The flow rate of mobile phase was 0.35 mL/min while sample injection volume was 4 μL.
# Multiple reaction monitoring (MRM) of positive or negative modes were used as scanning modes for the analytes and IS. Other essential parameters were successively optimized as: Nebulizing gas flow, 3 L/min; Heating gas flow, 10 L/min; Drying gas flow, 10 L/min; Interface temperature, 300 °C; DL temperature, 250 °C; Interface and detector voltage were each set as 3.0 kV and 1.8 kV. The detection parameters such as retention time (RT), dwell time (DT), quadrupole 1 pre-rod bias (Q1), collision energy […]
# Table S1 The retention time and ion equivalent parameters of 4 constituents in rat […]
# Constituents Retention Precursor Precursor Product time Pre energy Pre time (min) ion species ion ion (msec) Bias (V) Bias
# [2] = design: method as in PMID 34303214; details: rats, p.o. SPC 30 g crude drug/kg; doses of 1-4: 0.062, 0.11, 0.71, 1.31 mg/kg; cited from earlier work
# [3] = Observed pharmacokinetics in rats after oral SPC (previous study); format: in vivo, rat; details: p.o. SPC
# [4] = compartment model parameters, DAS 2.0, rats p.o. SPC 60 g crude drug/kg, Mean, 5 rats
# [5] = statistical moment parameters, DAS 2.0, rats p.o. SPC 60 g crude drug/kg, Mean, 5 rats
# [6] = statistical moment parameters, DAS 2.0, rats p.o. SPC 60 g crude drug/kg, Mean, 5 rats, in µg·h²/mL
structure (smiles),measurement,setting,value
"COc1ccc(-c2coc3c(OC)c(O)ccc3c2=O)cc1 [Constituent 2, 8-O-methylretusin]",Papp,Caco-2 cell monolayer,24.8 ×10⁻⁶ cm/s
same,K10,[1]; [4],6.671 h⁻¹
same,K12,[1]; [4],0.394 h⁻¹
same,K21,[1]; [4],0.474 h⁻¹
same,Ka,[1]; [4],2.056 h⁻¹
same,Tlag,[1]; [4],0 h
same,V1/F,[1]; [4],12.043 L/kg
same,t1/2Ka,[1]; [4],20.246 h
same,t1/2α,[1]; [4],34.861 h
same,concentration at 0.083 h,"[1]; rat, plasma, oral, time 0.083 h, rats p.o. SPC 60 g crude drug/kg, doses of 1-4: 0.124, 0.22, 1.4, 2.62 mg/kg, 5 rats",9 ng/mL
same,concentration at 0.25 h,"[1]; rat, plasma, oral, time 0.25 h, rats p.o. SPC 60 g crude drug/kg, doses of 1-4: 0.124, 0.22, 1.4, 2.62 mg/kg, 5 rats",22.9 ng/mL
same,concentration at 0.5 h,"[1]; rat, plasma, oral, time 0.5 h, rats p.o. SPC 60 g crude drug/kg, doses of 1-4: 0.124, 0.22, 1.4, 2.62 mg/kg, 5 rats",12.3 ng/mL
same,concentration at 0.75 h,"[1]; rat, plasma, oral, time 0.75 h, rats p.o. SPC 60 g crude drug/kg, doses of 1-4: 0.124, 0.22, 1.4, 2.62 mg/kg, 5 rats",5.23 ng/mL
same,concentration at 1 h,"[1]; rat, plasma, oral, time 1 h, rats p.o. SPC 60 g crude drug/kg, doses of 1-4: 0.124, 0.22, 1.4, 2.62 mg/kg, 5 rats",3.33 ng/mL
same,concentration at 1.5 h,"[1]; rat, plasma, oral, time 1.5 h, rats p.o. SPC 60 g crude drug/kg, doses of 1-4: 0.124, 0.22, 1.4, 2.62 mg/kg, 5 rats",1.97 ng/mL
same,concentration at 2 h,"[1]; rat, plasma, oral, time 2 h, rats p.o. SPC 60 g crude drug/kg, doses of 1-4: 0.124, 0.22, 1.4, 2.62 mg/kg, 5 rats",0.809 ng/mL
same,concentration at 3 h,"[1]; rat, plasma, oral, time 3 h, rats p.o. SPC 60 g crude drug/kg, doses of 1-4: 0.124, 0.22, 1.4, 2.62 mg/kg, 5 rats",0.809 ng/mL
same,concentration at 4 h,"[1]; rat, plasma, oral, time 4 h, rats p.o. SPC 60 g crude drug/kg, doses of 1-4: 0.124, 0.22, 1.4, 2.62 mg/kg, 5 rats",0.409 ng/mL
same,concentration at 6 h,"[1]; rat, plasma, oral, time 6 h, rats p.o. SPC 60 g crude drug/kg, doses of 1-4: 0.124, 0.22, 1.4, 2.62 mg/kg, 5 rats",0.445 ng/mL
same,concentration at 8 h,"[1]; rat, plasma, oral, time 8 h, rats p.o. SPC 60 g crude drug/kg, doses of 1-4: 0.124, 0.22, 1.4, 2.62 mg/kg, 5 rats",0.161 ng/mL
same,AUC(0-t),"[1]; rat, plasma, po, 0.22 mg/kg, compartment model parameters, DAS 2.0, rats p.o. SPC 60 g crude drug/kg, Mean, 5 rats, read-out: AUC(0-t)",19.8 ng·h/mL
same,AUC(0-inf),"[1]; rat, plasma, po, 0.22 mg/kg, compartment model parameters, DAS 2.0, rats p.o. SPC 60 g crude drug/kg, Mean, 5 rats, read-out: AUC(0-∞)",22.4 ng·h/mL
same,CL/F,"[1]; rat, plasma, po, 0.22 mg/kg, compartment model parameters, DAS 2.0, rats p.o. SPC 60 g crude drug/kg, Mean, 5 rats, read-out: CL/F (converted)",209 mL/min/kg
same,half-life,"[1]; rat, plasma, po, 0.22 mg/kg, compartment model parameters, DAS 2.0, rats p.o. SPC 60 g crude drug/kg, Mean, 5 rats, read-out: t1/2β (converted)",35.4 h
same,AUC(0-t),"[1]; rat, plasma, po, 0.22 mg/kg, statistical moment parameters, DAS 2.0, rats p.o. SPC 60 g crude drug/kg, Mean, 5 rats, read-out: AUC(0-t)",15.3 ng·h/mL
same,AUC(0-inf),"[1]; rat, plasma, po, 0.22 mg/kg, statistical moment parameters, DAS 2.0, rats p.o. SPC 60 g crude drug/kg, Mean, 5 rats, read-out: AUC(0-∞)",15.5 ng·h/mL
same,CL/F,"[1]; rat, plasma, po, 0.22 mg/kg, statistical moment parameters, DAS 2.0, rats p.o. SPC 60 g crude drug/kg, Mean, 5 rats, read-out: CLz/F (converted)",238 mL/min/kg
same,Cmax,"[1]; rat, plasma, po, 0.22 mg/kg, statistical moment parameters, DAS 2.0, rats p.o. SPC 60 g crude drug/kg, Mean, 5 rats, read-out: Cmax",25.3 ng/mL
same,MRT last,"[1]; rat, plasma, po, 0.22 mg/kg, statistical moment parameters, DAS 2.0, rats p.o. SPC 60 g crude drug/kg, Mean, 5 rats, read-out: MRT(0-t)",1.01 h
same,MRT inf,"[1]; rat, plasma, po, 0.22 mg/kg, statistical moment parameters, DAS 2.0, rats p.o. SPC 60 g crude drug/kg, Mean, 5 rats, read-out: MRT(0-∞)",1.3 h
same,Tmax,"[1]; rat, plasma, po, 0.22 mg/kg, statistical moment parameters, DAS 2.0, rats p.o. SPC 60 g crude drug/kg, Mean, 5 rats, read-out: Tmax",0.25 h
same,Vd/F,"[1]; rat, plasma, po, 0.22 mg/kg, statistical moment parameters, DAS 2.0, rats p.o. SPC 60 g crude drug/kg, Mean, 5 rats, read-out: Vz/F",22.1 L/kg
same,half-life,"[1]; rat, plasma, po, 0.22 mg/kg, statistical moment parameters, DAS 2.0, rats p.o. SPC 60 g crude drug/kg, Mean, 5 rats, read-out: t1/2z (converted)",1.07 h
same,AUC(0-t),"[1]; rat, plasma, po, 2.62 mg/kg, rats, p.o. SPC 60 g crude drug/kg, doses of 1-4: 0.124, 0.22, 1.42, 2.62 mg/kg, n = 5, read-out: AUC0→t Val.",15.3 ng·h/mL
same,AUC(0-inf),"[1]; rat, plasma, po, 2.62 mg/kg, rats, p.o. SPC 60 g crude drug/kg, doses of 1-4: 0.124, 0.22, 1.42, 2.62 mg/kg, n = 5, read-out: AUC0→∞ Val.",15.5 ng·h/mL
same,Tmax,"[1]; rat, plasma, po, rats, p.o. SPC 60 g crude drug/kg, doses of 1-4: 0.124, 0.22, 1.42, 2.62 mg/kg, n = 5, read-out: Tmax Val.",0.25 h
same,Cz,[1]; [5],0.107 µg/L
same,VRT(0-t),[1]; [5],1.65 h^2
same,VRT(0-∞),[1]; [5],3.316 h^2
same,elimination rate constant,[1]; [5],0.675 h⁻¹
same,AUMC(0-t),[1]; [6],15.37
same,AUMC(0-∞),[1]; [6],20.163
same,AUC0→t Obs.,[2],9.7 ng·h/mL
same,AUC0→∞ Obs.,[2],11.5 ng·h/mL
same,Cmax Obs.,[2],13.6 ng/mL
same,time of slight secondary absorption peak,[3],3 h
